The results in this text go back to patent publication US11578097B2, “Tetrazole derivatives of bile acids as FXR/TGR5 agonists and methods of use thereof” (Enanta Pharmaceuticals, Inc., priority 2014, dated 2023).

The structures appear in SMILES notation.

The target of the test is T1, human FXR (NR1H4) (Homo sapiens, UniProt Q96RI1).
T1 construct: host or cells: CHO (Chinese hamster ovary) cells
T1 sequence (Q96RI1 1-486): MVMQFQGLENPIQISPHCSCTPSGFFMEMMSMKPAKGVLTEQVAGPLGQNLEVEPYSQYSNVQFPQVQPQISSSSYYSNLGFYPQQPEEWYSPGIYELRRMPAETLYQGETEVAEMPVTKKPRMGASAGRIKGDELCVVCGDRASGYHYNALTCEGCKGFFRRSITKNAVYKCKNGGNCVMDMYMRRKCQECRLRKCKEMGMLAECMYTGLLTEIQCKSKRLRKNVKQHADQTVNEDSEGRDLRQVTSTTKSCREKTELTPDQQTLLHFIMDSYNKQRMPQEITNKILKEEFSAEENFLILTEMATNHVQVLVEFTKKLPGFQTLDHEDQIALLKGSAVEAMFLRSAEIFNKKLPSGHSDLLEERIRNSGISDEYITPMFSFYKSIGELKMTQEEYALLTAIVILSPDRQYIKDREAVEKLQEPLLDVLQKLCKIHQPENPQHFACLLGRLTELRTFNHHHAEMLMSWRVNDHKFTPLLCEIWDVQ
Description: Human FXR (NR1H4) reporter assay (Gal4 promoter driven transactivation, luciferase). Conditions: for Efficacy (%): normalized to CDCA set as 100%. Format: cell-based. The source says: Assays Human FXR (NR1H4) Assay Determination of a ligand mediated Gal4 promoter driven transactivation to quantify ligand binding mediated activation of FXR. FXR Reporter Assay kit purchased from Indigo Bioscience (Catalogue number: IB00601) to determine the potency and efficacy of compound developed by Enanta that can induce FXR activation. The principal application of this reporter assay system is to quantify functional activity of human FXR. The assay utilizes non-human mammalian cells, CHO (Chinese hamster ovary) cells engineered to express human NR1H4 protein (referred to as FXR). Reporter cells also incorporate the cDNA encoding beetle luciferase which catalyzes the substrates and yields photon emission. Luminescence intensity of the reaction is quantified using a plate-reading luminometer, Envision. Reporter Cells include the luciferase reporter gene functionally linked to an FXR responsive promoter. Thus, quantifying changes in luciferase expression in the treated reporter cells provides a sensitive surrogate measure of the changes in FXR activity. […] The assay is according to the manufacturer's instructions. In brief, the assay was performed in white, 96 well plates using final volume of 100 ul containing cells with different doses of compounds. Retrieve Reporter Cells from −80° C. storage. Perform a rapid thaw of the frozen cells by transferring a 10 ml volume of 37° C. cell recovery medium into the tube of frozen cells. Recap the tube of Reporter Cells and immediately place it in a 37° C. water bath for 5-10 minutes. Retrieve the tube of Reporter Cell Suspension from the water bath. Sanitize the outside surface of the tube with a 70% alcohol swab, and then transfer it into the cell culture hood. Dispense 90 μl of cell suspension into each well of the 96-well Assay Plate. Transfer the plate into 37° C. incubator, allowing the cells adherent to the bottom of the well. Dilute compounds in Dilution Plate (DP), and administrate to cells at Assay Plate (AP). DMSO content of the samples was kept at 0.2%. Cells were incubated for additional 22 hours before luciferase activities were measured. Thirty minutes before intending to quantify FXR activity, remove Detection Substrate and Detection Buffer from the refrigerator and place them in a low-light area so that they may equilibrate to room temperature. Remove the plate's lid and discard all media contents by ejecting it into an appropriate waste container. Gently tap the inverted plate onto a clean absorbent paper towel to remove residual droplets. Cells will remain tightly adhered to well bottoms. Add 100 μl of luciferase detection reagent to each well of the assay plate. Allow the assay plate to rest at room temperature for at least 5 minutes following the addition of LDR. Set the instrument (Envision) to perform a single 5 second “plate shake” prior to reading the first assay well. Read time may be 0.5 second (500 mSec) per well.
Background: Reporter assays use an easily measured gene product as a stand-in for the process of interest.

For the molecule `CC[C@H]1[C@@H](O)[C@@H]2[C@H](CC[C@]3(C)[C@@H]([C@H](C)CCc4nnn[nH]4)CC[C@@H]23)[C@@]2(C)CC[C@@H](O)C[C@@H]12` [Example 1], the EC50 – broadly, the concentration at which the effect is half-maximal – was in the range of 1 to 10 µM and the “Efficacy (%)” value is 397%.
As to `CC[C@H]1[C@@H](O)[C@@H]2[C@H](CC[C@]3(C)[C@@H]([C@H](C)CCCc4nnn[nH]4)CC[C@@H]23)[C@@]2(C)CC[C@@H](O)C[C@@H]12` [Example 2], the EC50 is 0.1 to 1 µM and the “Efficacy (%)” value was 354%.
With `CC[C@H]1[C@@H](O)[C@@H]2[C@H](CC[C@]3(C)[C@@H]([C@H](C)Cc4nnn[nH]4)CC[C@@H]23)[C@@]2(C)CC[C@@H](O)C[C@@H]12` [Example 3], the EC50 is 1 to 10 µM and the “Efficacy (%)” value came out at 192%.
With `CC[C@H]1[C@@H](O)[C@@H]2[C@H](CC[C@]3(C)[C@@H]([C@H](C)CCCCc4nn[nH]n4)CC[C@@H]23)[C@@]2(C)CC[C@@H](O)C[C@@H]12` [Example 4], the EC50 was 0.1 to 1 µM and the “Efficacy (%)” value was 234%.
Consider `CC[C@H]1[C@@H](O)[C@@H]2[C@H](CC[C@]3(C)[C@@H]([C@H](C)CCCCCc4nn[nH]n4)CC[C@@H]23)[C@@]2(C)CC[C@@H](O)C[C@@H]12` [Example 5], for which the EC50 lay in the range of 0.1 to 1 µM and the “Efficacy (%)” value was found to be 191%.
As for `CC[C@H]1[C@@H](O)[C@@H]2[C@H](CC[C@]3(C)[C@@H]([C@H](C)CCC(=O)Nc4nnn[nH]4)CC[C@@H]23)[C@@]2(C)CC[C@@H](O)C[C@@H]12` [Example 6], the EC50 is 1 to 10 µM and the “Efficacy (%)” value stood at 105%.
